From the NIST ThermoML archive (doi:10.1021/acs.jced.6b00513)
Numbers after ± are expanded uncertainties.

Details: 298.2 K, 101.3 kPa, Buoyancy - hydrostatic balance

Compound | mass density (Liquid) | mass density (Metastable liquid)
Cc1cc(C)cc(C)c1 [1,3,5-trimethylbenzene] | 864 ± 6 kg/m3 | 
Cc1cccc(O)c1 [3-methylphenol] | 1034.5 ± 6 kg/m3 | 
CC(=O)CC(C)C [4-methylpentan-2-one] | 799.8 ± 6 kg/m3 | 
Cc1ccc(O)cc1 [4-methylphenol] |  | 1034.4 ± 6 kg/m3
CCCCOC(C)=O [butyl ethanoate] | 882.2 ± 6 kg/m3 | 
CO [methanol] | 791 ± 6 kg/m3 | 
O [water] | 997.2 ± 6 kg/m3 | 
